Assay results as given in PubChem BioAssay (NCI).
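How tested: cells in 96-well plates exposed to compound for 48 hours at five concentrations. At the GI50, growth is halved. The concentration for full growth arrest is given as TGI.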

How the values were obtained:
Assay in all cases: inhibition of tumour cell growth, NCI panel, 48 h
SNB-75 CNS = tested on: SNB-75 CNS
U251 CNS = tested on: U251 CNS
HL-60(TB) leukemia = tested on: HL-60(TB) leukemia
LOX IMVI melanoma = tested on: LOX IMVI melanoma
SNB-19 CNS = tested on: SNB-19 CNS
RXF 393 renal = tested on: RXF 393 renal
UACC-62 melanoma = tested on: UACC-62 melanoma
MDA-MB-435 = tested on: MDA-MB-435
COLO 205 colon = tested on: COLO 205 colon

| SMILES | TGI (SNB-75 CNS) [µM] | TGI (U251 CNS) [µM] | TGI (HL-60(TB) leukemia) [µM] | TGI (LOX IMVI melanoma) [µM] | TGI (SNB-19 CNS) [µM] | TGI (RXF 393 renal) [µM] | TGI (UACC-62 melanoma) [µM] | TGI (MDA-MB-435) [µM] | TGI (COLO 205 colon) [µM] | GI50 (SNB-75 CNS) [µM] | GI50 (U251 CNS) [µM] | GI50 (MDA-MB-435) [µM] | GI50 (HL-60(TB) leukemia) [µM] | GI50 (LOX IMVI melanoma) [µM] | GI50 (SNB-19 CNS) [µM] | GI50 (RXF 393 renal) [µM] | GI50 (UACC-62 melanoma) [µM] | GI50 (COLO 205 colon) [µM] |
| --- | --- | --- | --- | --- | --- | --- | --- | --- | --- | --- | --- | --- | --- | --- | --- | --- | --- | --- |
| COC1=NCc2ccccc2-c2ccccc21 | > 100 | > 100 | > 100 | > 100 | > 100 | > 100 | > 100 |  |  |  |  |  |  |  |  |  |  |  |
| COc1ccc([C@H]2[C@H]3COC(=O)[C@H]3C(C#N)=C3Sc4ccccc4N32)cc1 | > 26.7 | > 100 |  | > 62.9 | > 100 | 38.4 | > 100 | > 100 | 34.5 |  |  |  |  |  |  |  |  |  |
| CC1=NNC(=O)C1C1C(=O)NN=C(c2c[nH]c3ccccc23)C1Br (stereo not given) | 58.9 | > 100 | > 100 | > 100 | > 100 | > 100 | > 100 | > 100 | > 100 |  |  |  |  |  |  |  |  |  |
| CN1CCC(CNc2cc(C3(C(=O)Nc4cc(C(=O)Nc5ccc(Cl)c(C(F)(F)F)c5)ccc4F)CC3)ncn2)CC1 | 2.86 | 3.62 |  |  |  |  |  | 4.04 |  | 0.955 | 1.63 | 1.84 |  |  |  |  |  |  |
| CCCCCOc1ccc(C=Nc2ccc(CCc3ccc(N=Cc4ccc(OCCCCC)cc4)cc3)cc2)cc1 | > 100 | > 100 | > 100 | > 100 | > 100 | > 100 | > 100 |  | > 100 |  |  |  |  |  |  |  |  |  |
| Cn1c(=O)c2c(nc3n(CC(O)CCl)c(=O)ccn23)n(C)c1=O (stereo not given) | > 100 | > 100 | > 100 | > 100 | > 100 | > 100 | > 100 | > 100 | > 100 |  |  |  |  |  |  |  |  |  |
| Cc1cc([NH-])c([NH-])cc1C.[Cl][Pt+2][Cl] | > 100 | 17 | 75.4 | 17.6 | > 100 | 31.1 | 27.3 |  | 34.9 | 39.2 | 5.24 |  | 17 | 7.9 | 10.5 | 16.3 | 8.88 | 14.8 |
| CN(C)CC(O)c1ccc(Cl)c2ccccc12 (stereo not given) | > 89.1 | > 90.6 | > 78 | > 66.6 | > 100 | > 64.9 | 34 | 61.2 | 49.2 |  |  |  |  |  |  |  |  |  |
| CSc1ncc2c(n1)C(C#N)C1Sc3ccccc3N1C2=O (stereo not given) | 66.3 | > 100 |  | > 100 | > 100 | > 100 |  | > 100 | > 100 |  |  |  |  |  |  |  |  |  |
| Nc1n(CC(=O)c2ccccc2)nc2sc(-c3ccccc3)n[n+]12 | > 100 | 34.2 |  | > 100 | > 100 | 25.1 | 25.1 | 8.95 | 47 |  |  |  |  |  |  |  |  |  |
| Oc1cc(Cc2ccccc2)c(Cc2ccccc2)cc1O | > 10 | > 10 | > 10 | > 10 | > 10 | > 10 | > 10 | > 10 | > 10 |  |  |  |  |  |  |  |  |  |
| CCO/C(=N/S(=O)(=O)C(F)(F)F)N(C(C)C)C(C)C |  | > 100 | > 100 | > 100 | > 100 | > 100 | > 100 | > 100 | > 100 |  |  |  |  |  |  |  |  |  |
| NC(=O)Nc1c(Cl)cc(S(N)(=O)=O)cc1Cl | > 100 | > 100 | > 100 | > 100 | > 100 | > 100 | > 100 | > 100 | > 100 |  |  |  |  |  |  |  |  |  |
| C#CCNC(CSSCC(N)C(=O)O)C(=O)O (stereo not given) | > 100 | > 100 |  |  | > 100 | > 100 | > 100 | > 100 | > 100 |  |  |  |  |  |  |  |  |  |
| O=C(Nc1ccc(N2C(=O)CSC2c2ccccc2O)cc1)c1ccc(N2C(=O)CSC2c2ccccc2O)cc1 (stereo not given) | 82.4 | > 100 |  | > 100 | > 100 | > 100 | 98.1 | > 100 | > 100 |  |  |  |  |  |  |  |  |  |
| N#Cc1c(-c2ccc(Cl)cc2)c2c(nn3c4ccc5ccccc5c4nnc23)[nH]c1=O |  | 5.38 | > 100 | 4.18 | 24.2 | 3.72 | 3.24 | 8.69 | 10.6 |  |  |  |  |  |  |  |  |  |
| O=C(O)CC(Cc1ccccc1Cl)C(=O)O (stereo not given) |  | > 100 |  | > 100 | > 100 | > 100 | > 100 | > 100 | > 100 |  |  |  |  |  |  |  |  |  |
| C[C@@H]1OC(=O)C[C@H]2CC(=O)N(CCC3CN(C(=O)OCc4ccccc4)c4ccccc43)C[C@@H]21 (stereo not given in full) | > 100 | > 100 |  |  | > 100 | > 100 | > 100 | > 100 | > 100 |  |  |  |  |  |  |  |  |  |
| CNC(C)(C)Cc1ccc(Cl)cc1 | > 100 | > 100 |  | > 100 |  | > 100 | > 100 |  | > 100 |  |  |  |  |  |  |  |  |  |
| CCn1nc(C)c2c1C(=O)NCC(=O)N2 | > 100 | > 100 |  |  | > 100 | > 100 | > 100 | > 100 | > 100 |  |  |  |  |  |  |  |  |  |
| CCOC(=O)c1ccc(-n2[nH]nc(C(N)=O)c2=O)cc1 | > 100 | > 100 |  |  | > 100 | > 100 | > 100 | > 100 | > 100 |  |  |  |  |  |  |  |  |  |
